From US7232839B2, “Benzoisothiazolone compositions” (L'Oreal, priority 2004, dated 2007)

Legend:
[1] = system: immortalized human sebocytes in culture, derived from the SZ95 line; test: Proliferation tests (MUH) and cell viability tests (LDH) run in parallel; type: cell-based
From the text: In parallel, proliferation tests (MUH) and cell viability tests (LDH) make it possible to check that the, effects obtained are not associated with an appreciable change in these biological parameters.

[2] = system: immortalized human sebocytes in culture, derived from the SZ95 line; test: Lipogenesis test: lipid content of sebocytes in culture by Nile red fluorescence; type: cell-based; settings: for LIPID VARIATION (relative to the control): treatment for 2 days, neutral lipids, Nile red
Experimental: The activity of the compounds (2c) and (1e) described above was tested on a model of immortalized human sebocytes in culture, derived from the SZ95 line described in Zouboulis, C. C., Seltmann, H., Neitzel, H. & Orfanos, C. E., Establishment and Characterization of an Immortalized Human Sebaceous Gland Cell Line, J. Invest. Dermatol., 113, 1011–1020 (1999).
The test consisted in measuring the amount of lipids produced by the sebocytes of the line (at confluence), in the presence or absence of an active agent, diluted in DMSO, such that the final amount of DMSO in the culture medium is 0.1%. After treatment for 2 days, the adherent cells are treated with Nile red (1 μg/ml). The lipid content is then quantified by measuring the fluorescence of the dye (excitation/emission couple: 485–540 nm for the neutral lipids).
The tests are performed in sextuplicate and the experiment is repeated four times.

SMILES | Proliferation/cytotoxicity ([1]; concentration 10^−6 M) | LIPID VARIATION (relative to the control) ([2]; concentration 10^−6 M) | increase in the lipid content of the sebum ([2]; concentration 10^−5 M, same test) [%] | Proliferation/cytotoxicity ([1]; concentration 10^−4 M) | LIPID VARIATION (relative to the control) ([2]; concentration 10^−4 M)
COc1ccc(N2C(=O)c3c(OC)cccc3S2(=O)=O)cc1 [(2c), 4-methoxy-2-(4-methoxyphenyl)-1,2-benzisothiazol-3(2H)-one 1,1-dioxide] | no | +43% | – | – | –
C[C@]12CC[C@H](O)CC1=CC[C@@H]1[C@@H]2CC[C@]2(C)C(=O)CC[C@@H]12 [DHEA, reference compound] | – | – | 13 | – | –
O=C1c2c(O)cccc2S(=O)(=O)N1c1ccccc1 [(1e), 4-hydroxy-2-phenyl-1,2-benzisothiazol-3(2H)-one 1,1-dioxide] | no | +16% | – | no | +39%
